Measurements reported in patent US12252524B2, “GIP/GLP1 co-agonist compounds” (Eli Lilly and Company, priority 2018, dated 2025).
Numbered stars: 1 amine (or outer) side, 2 acyl side, 3 side chain; on linkers, the order of the positions; unused ones are H or OH. Square brackets hold non-standard residues; d marks the D form. Side chains are listed from the residue outwards. Peptide text beside a SMILES is read from it. * marks the point of attachment. C20 diacid = O=C(O)CCCCCCCCCCCCCCCCCCC(=O)*; γGlu = O=C(O)[C@H](CCC(=O)[*:2])N[*:1]; αMeF = C[C@](N)(Cc1ccccc1)C(=O)O; AEEA = NCCOCCOCC(=O)O; Aib = CC(C)(N)C(=O)O

Legend:
[1] = molecular target: T1, gastric inhibitory peptide receptor (GIPR) (Homo sapiens, UniProt P48546); experiment: cAMP pharmacological functional assay in presence of casein, hGIPR; type: cell-based; details: HEK293 cells expressing hGIPR, 0.1% Casein, geometric mean; read-out: hGIPR cAMP Rel EC50 nM (SEM, n)
T1 sequence (P48546 22-466): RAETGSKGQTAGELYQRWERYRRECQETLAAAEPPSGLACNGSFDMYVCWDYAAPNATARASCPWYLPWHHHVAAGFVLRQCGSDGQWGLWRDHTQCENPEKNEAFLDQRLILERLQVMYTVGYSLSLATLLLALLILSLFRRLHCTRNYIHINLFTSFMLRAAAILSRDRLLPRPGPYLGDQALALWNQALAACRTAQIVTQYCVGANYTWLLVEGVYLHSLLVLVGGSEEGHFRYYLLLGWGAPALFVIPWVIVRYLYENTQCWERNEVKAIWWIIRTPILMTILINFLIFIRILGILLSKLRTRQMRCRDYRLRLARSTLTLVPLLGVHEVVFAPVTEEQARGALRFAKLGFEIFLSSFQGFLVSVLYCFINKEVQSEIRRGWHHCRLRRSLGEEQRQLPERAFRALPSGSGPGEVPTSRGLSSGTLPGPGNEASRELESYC

[2] = molecular target: human GLP-1 receptor (GLP-1R) (Homo sapiens, UniProt P43220); experiment: cAMP pharmacological functional assay in presence of casein, hGLP-1R; type: cell-based; details: HEK293 cells expressing hGLP-1R, 0.1% Casein, geometric mean; read-out: hGLP1R cAMP Rel EC50 nM (SEM, n)
Chain of human GLP-1 receptor (GLP-1R) (P43220 24-463): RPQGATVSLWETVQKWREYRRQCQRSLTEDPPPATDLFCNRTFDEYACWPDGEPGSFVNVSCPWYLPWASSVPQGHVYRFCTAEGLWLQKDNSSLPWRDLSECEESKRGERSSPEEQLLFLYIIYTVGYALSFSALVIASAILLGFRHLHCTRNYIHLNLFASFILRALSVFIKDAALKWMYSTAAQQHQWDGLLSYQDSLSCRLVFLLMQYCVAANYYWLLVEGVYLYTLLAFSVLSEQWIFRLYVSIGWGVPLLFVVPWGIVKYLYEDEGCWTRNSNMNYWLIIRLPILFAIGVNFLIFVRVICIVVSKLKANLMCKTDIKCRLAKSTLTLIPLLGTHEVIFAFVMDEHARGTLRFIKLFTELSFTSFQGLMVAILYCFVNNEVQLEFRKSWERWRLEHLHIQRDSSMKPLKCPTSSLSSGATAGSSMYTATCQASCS

SMILES: CC[C@H](C)[C@H](NC(=O)[C@H](CC(C)C)NC(=O)[C@H](Cc1ccc(O)cc1)NC(=O)[C@H](CCC(=O)O)NC(=O)[C@@H](NC(=O)[C@H](Cc1ccccc1)NC(=O)[C@H](C)NC(=O)C(C)(C)NC(=O)[C@H](CCC(N)=O)NC(=O)[C@H](C)NC(=O)[C@H](CCCCNC(=O)COCCOCCNC(=O)COCCOCCNC(=O)CC[C@H](NC(=O)CCCCCCCCCCCCCCCCCCC(=O)O)C(=O)O)NC(=O)[C@H](CCC(=O)O)NC(=O)[C@H](CC(=O)O)NC(=O)[C@H](CC(C)C)NC(=O)C(C)(C)NC(=O)[C@@H](NC(=O)[C@H](CO)NC(=O)[C@H](Cc1ccc(O)cc1)NC(=O)[C@H](CC(=O)O)NC(=O)[C@H](CO)NC(=O)[C@@H](NC(=O)[C@](C)(Cc1ccccc1)NC(=O)[C@@H](NC(=O)CNC(=O)[C@H](CCC(=O)O)NC(=O)C(C)(C)NC(=O)[C@@H](N)Cc1ccc(O)cc1)[C@@H](C)O)[C@@H](C)O)[C@@H](C)CC)[C@@H](C)CC)C(=O)N[C@@H](CCC(=O)O)C(=O)NCC(=O)NCC(N)=O [Example 102] (H-Y[Aib]EGT[αMeF]TSDYSI[Aib]LDEK([AEEA-AEEA-γGlu-C20 diacid])AQ[Aib]AFIEYLIEGG-NH2)
- EC50 [1]: 0.178 nM
- EC50 [2]: 0.0628 nM

SMILES: CC[C@H](C)[C@H](NC(=O)[C@H](CC(C)C)NC(=O)[C@H](Cc1ccc(O)cc1)NC(=O)[C@H](CCC(=O)O)NC(=O)[C@@H](NC(=O)[C@H](Cc1ccccc1)NC(=O)[C@H](C)NC(=O)C(C)(C)NC(=O)[C@H](CCC(N)=O)NC(=O)[C@H](C)NC(=O)[C@H](CCCCNC(=O)COCCOCCNC(=O)[C@H]1CC[C@H](CNC(=O)CC[C@H](NC(=O)CCCCCCCCCCCCCCCCCCC(=O)O)C(=O)O)CC1)NC(=O)[C@H](CCCCN)NC(=O)[C@H](CC(=O)O)NC(=O)[C@H](CC(C)C)NC(=O)[C@H](CC(C)C)NC(=O)[C@@H](NC(=O)[C@H](CO)NC(=O)[C@H](Cc1ccc(O)cc1)NC(=O)[C@H](CC(=O)O)NC(=O)[C@H](CO)NC(=O)[C@@H](NC(=O)[C@H](Cc1ccccc1)NC(=O)[C@@H](NC(=O)CNC(=O)[C@H](CCC(=O)O)NC(=O)C(C)(C)NC(=O)[C@@H](N)Cc1ccc(O)cc1)[C@@H](C)O)[C@@H](C)O)[C@@H](C)CC)[C@@H](C)CC)C(=O)N[C@@H](CCC(=O)O)C(=O)NCC(=O)NCC(=O)N1CCC[C@H]1C(=O)N[C@@H](CO)C(=O)N[C@@H](CO)C(=O)NCC(=O)N[C@@H](C)C(=O)N1CCC[C@H]1C(=O)N1CCC[C@H]1C(=O)N1CCC[C@H]1C(=O)N[C@@H](CO)C(N)=O [Example 111]
- EC50 [1]: 0.141 nM
- EC50 [2]: 0.308 nM

SMILES: CC[C@H](C)[C@H](NC(=O)[C@H](CC(C)C)NC(=O)[C@H](Cc1ccc(O)cc1)NC(=O)[C@H](CCC(=O)O)NC(=O)[C@@H](NC(=O)[C@H](Cc1ccccc1)NC(=O)[C@H](C)NC(=O)C(C)(C)NC(=O)[C@H](CCC(N)=O)NC(=O)[C@H](C)NC(=O)[C@H](CCCCNC(=O)COCCOCCNC(=O)COCCOCCNC(=O)[C@@H](N)CCCCNC(=O)CCCCCCCCCCCCCCCCCCC(=O)O)NC(=O)[C@H](CCCCN)NC(=O)[C@H](CC(=O)O)NC(=O)[C@H](CC(C)C)NC(=O)[C@H](CC(C)C)NC(=O)[C@@H](NC(=O)[C@H](CO)NC(=O)[C@H](Cc1ccc(O)cc1)NC(=O)[C@H](CC(=O)O)NC(=O)[C@H](CO)NC(=O)[C@@H](NC(=O)[C@H](Cc1ccccc1)NC(=O)[C@@H](NC(=O)CNC(=O)[C@H](CCC(=O)O)NC(=O)C(C)(C)NC(=O)[C@@H](N)Cc1ccc(O)cc1)[C@@H](C)O)[C@@H](C)O)[C@@H](C)CC)[C@@H](C)CC)C(=O)N[C@@H](CCC(=O)O)C(=O)NCC(=O)NCC(=O)N1CCC[C@H]1C(=O)N[C@@H](CO)C(=O)N[C@@H](CO)C(=O)NCC(=O)N[C@@H](C)C(=O)N1CCC[C@H]1C(=O)N1CCC[C@H]1C(=O)N1CCC[C@H]1C(=O)N[C@@H](CO)C(N)=O [Example 113]
- EC50 [1]: 0.166 nM
- EC50 [2]: 0.233 nM

SMILES: CC[C@H](C)[C@H](NC(=O)[C@H](CC(C)C)NC(=O)[C@H](Cc1ccc(O)cc1)NC(=O)[C@H](CCC(=O)O)NC(=O)[C@@H](NC(=O)[C@H](Cc1ccccc1)NC(=O)[C@H](C)NC(=O)C(C)(C)NC(=O)[C@H](CCC(N)=O)NC(=O)[C@H](C)NC(=O)[C@H](CCCCNC(=O)COCCOCCNC(=O)[C@@H](N)CCCCNC(=O)[C@@H](N)CCCCNC(=O)CCCCCCCCCCCCCCCCCCC(=O)O)NC(=O)[C@H](CCCCN)NC(=O)[C@H](CC(=O)O)NC(=O)[C@H](CC(C)C)NC(=O)[C@H](CC(C)C)NC(=O)[C@@H](NC(=O)[C@H](CO)NC(=O)[C@H](Cc1ccc(O)cc1)NC(=O)[C@H](CC(=O)O)NC(=O)[C@H](CO)NC(=O)[C@@H](NC(=O)[C@H](Cc1ccccc1)NC(=O)[C@@H](NC(=O)CNC(=O)[C@H](CCC(=O)O)NC(=O)C(C)(C)NC(=O)[C@@H](N)Cc1ccc(O)cc1)[C@@H](C)O)[C@@H](C)O)[C@@H](C)CC)[C@@H](C)CC)C(=O)N[C@@H](CCC(=O)O)C(=O)NCC(=O)NCC(=O)N1CCC[C@H]1C(=O)N[C@@H](CO)C(=O)N[C@@H](CO)C(=O)NCC(=O)N[C@@H](C)C(=O)N1CCC[C@H]1C(=O)N1CCC[C@H]1C(=O)N1CCC[C@H]1C(=O)N[C@@H](CO)C(N)=O [Example 114]
- EC50 [1]: 0.133 nM
- EC50 [2]: 0.267 nM

SMILES: CC[C@H](C)[C@H](NC(=O)[C@H](CC(C)C)NC(=O)[C@H](Cc1ccc(O)cc1)NC(=O)[C@H](CCC(=O)O)NC(=O)[C@@H](NC(=O)[C@H](Cc1ccccc1)NC(=O)[C@H](C)NC(=O)C(C)(C)NC(=O)[C@H](CCC(N)=O)NC(=O)[C@H](C)NC(=O)[C@H](CCCCNC(=O)COCCOCCNC(=O)COCCOCCNC(=O)CC[C@H](NC(=O)CCCCCCCCCCCCCCCCCCC(=O)O)C(=O)O)NC(=O)[C@H](CCCCN)NC(=O)[C@H](CC(=O)O)NC(=O)[C@H](CC(C)C)NC(=O)[C@H](CC(C)C)NC(=O)[C@@H](NC(=O)[C@H](CO)NC(=O)[C@](C)(Cc1ccccc1)NC(=O)[C@H](CC(=O)O)NC(=O)[C@H](CO)NC(=O)[C@@H](NC(=O)[C@](C)(Cc1ccccc1)NC(=O)[C@@H](NC(=O)CNC(=O)[C@H](CCC(=O)O)NC(=O)C(C)(C)NC(=O)[C@@H](N)Cc1ccc(O)cc1)[C@@H](C)O)[C@@H](C)O)[C@@H](C)CC)[C@@H](C)CC)C(=O)N[C@@H](CCC(=O)O)C(=O)NCC(=O)NCC(=O)N1CCC[C@H]1C(=O)N[C@@H](CO)C(=O)N[C@@H](CO)C(=O)NCC(=O)N[C@@H](C)C(=O)N1CCC[C@H]1C(=O)N1CCC[C@H]1C(=O)N1CCC[C@H]1C(=O)N[C@@H](CO)C(N)=O [Example 131] (H-Y[Aib]EGT[αMeF]TSD[αMeF]SILLDKK([AEEA-AEEA-γGlu-C20 diacid])AQ[Aib]AFIEYLIEGGPSSGAPPPS-NH2)
- EC50 [1]: 0.183 nM
- EC50 [2]: 0.156 nM
